Measured values taken from patent US20180030091A1, “COLLAGEN-BINDING SYNTHETIC PEPTIDOGLYCANS FOR USE IN VASCULAR INTERVENTION” (Purdue Research Foundation, priority 2010, published 2018).
“Also recorded” adds a separate entry of the source. Where no end group is shown, it is not given here.

Legend:
Fibrillar collagen [1] = assay: Peptidoglycan diffusion from collagen surface; assay type: binding; conditions: after 1 week of extensive rinsing at 37° C.; applied at 10 μM
Method: The peptidoglycan OS-SILY18-biotin was dissolved at 10 μM in 1×PBS pH 7.4 with 2% BSA and was incubated on fibrillar collagen coated plates prepared as described. The plate was incubated at 37° C. on an orbital shaker and was rinsed extensively with 1×PBS pH 7.4. At various time points up to 11 days, OS-SILY18-biotin was detected on the surface as described for the binding affinity studies. The curve of diffusion of peptidoglycan from the collagen surface was fitted using a hyperbolic decay.
The diffusion of the peptidoglycan DS-SILY18 from a collagen surface was measured by incubating at 37° C. and rinsing extensively in order to mimic blood flow in vivo. Peptidoglycan was incubated on fibrillar collagen surfaces and detected by the same methods for calculating binding affinities. […] It is estimated that complete endothelial cell regrowth occurs within 1 week of balloon injury, and thus this time frame is useful for preventing platelet binding until endothelial cells grow back and provide a permanent cover to the underlying collagen.

[2] = system: Human coronary artery endothelial cells (ECs); assay: Endothelial cell proliferation; assay type: cell-based; conditions: highest concentration tested (final concentrations 35, 3.5, and 0.35 μM); 48 hours
Method: Human coronary artery endothelial cells (ECs) (Lonza, Walkersville, Md.) were seeded in 96-well plates at a cell density of 1.5×10^3 cells/well. Cells were allowed to adhere to the surface for 24 hours and adherent ECs were stained using cell tracker green (Invitrogen, Carlsbad, Calif.). Initial cell number was determined by measuring fluorescence of each well with 492 nm excitation and 517 nm emission.
DS-SILY18 was solubilized in water at a concentration of […] and diluted in water 10 fold for concentrations of 175, 17.5, and 1.75 μM. The DS-SILY solution was diluted 5 fold with cell media for final concentrations of […]. The control consisted of diluting water 5 fold with cell media. 100 μL of media with DS-SILY was added to each well and the cell number was determined 48 hours later by measuring fluorescence. The percent change in cell number in each well was calculated.

[3] = system: Whole blood on fibrillar collagen; assay: Inhibition of whole blood binding to collagen under flow; assay type: cell-based; conditions: 50 μM for 15 min; 5.6 mL/hr, shear rate 1000 s^−1, 5 min of flow
Method: Flow kits were obtained from Ibidi (Martinsried, Germany). Each channel was coated with fibrillar collagen as described for static microplate studies. Excess collagen was removed from the flow channel by extensive rinsing with 1×PBS through the channel. DS-SILY18 was incubated in the channel at a concentration of 50 μM for 15 min at 37° C., and unbound peptidoglycan was rinsed with 1×PBS. Control channels consisted of collagen not treated with peptidoglycan.
Whole blood was pushed through the flow channels by a syringe pump at a flow rate of 5.6 mL/hr, corresponding to a physiologically relevant shear rate of 1000 s^−1 (Badimon L, Badimon J J, Turitto V T, Vallabhajosula S, Fuster V. Platelet thrombus formation on collagen type I—a model of deep vessel injury—influence of blood rheology, von Willebrand Factor, and blood-coagulation. Circulation 1988; 78(6):1431-42). After 5 min of flow, 1×PBS pH 7.4 was pushed through at the same flow rate for 10 min to wash unbound cells. Brightfield images (n=3) were taken of each flow channel with a 10× objective. Images were thresholded and quantified for cellular coverage using ImageJ (NIH, Bethesda, Md.) and MatLab (Mathworks, Natick, Mass.) respectively. Control channels were assumed to have complete cellular coverage.

Fibrillar collagen [4] = assay: Binding affinity of biotin labeled peptidoglycan to fibrillar collagen; conditions: biotin labeled peptidoglycans, fitted saturation binding curves
Method: Fibrillar collagen (Chronolog, Havertown, Pa.) was coated onto the surface of a 96-well high bind plate (Costar) at a concentration of 50 μg/mL diluted in isotonic glucose. Plates were covered and incubated overnight at 4° C. Unbound collagen was removed by rinsing 3 times with 1×PBS pH 7.4. Plates were then blocked with 1% BSA for 3 hours at room temperature. Peptidoglycan was dissolved at varying concentrations in 1×PBS pH 7.4 containing 1% BSA and were immediately added to the collagen surfaces, and allowed to incubate for 15 min at room temperature. Plates were then rinsed 3 times with 1×PBS pH 7.4 containing 1% BSA. Streptavidin-HRP solution (R&D Systems, Minneapolis, Minn.) was then added to the plates and incubated for 20 minutes at room temperature. […] The color evolving reaction was stopped with 50 μL 2N sulfuric acid and absorbance was measured at 450 nm using an M5 UV Vis Spectrophotometer (Molecular Devices). Plate imperfections (540 nm) were subtracted from absorbance values.
The binding affinities of biotin labeled peptidoglycans, labeled using protocols known in the art, DS-SILY4 and DS-SILY18 were calculated by fitting the saturation binding curves and calculating the inflection point. […]

[5] = system: Human platelets on Type I fibrillar collagen; assay: Inhibition of platelet activation on fibrillar collagen after 24 hour rinse (PF4, NAP2); assay type: cell-based; conditions: unbound peptidoglycan rinsed over 24 hours; PF-4 and Nap-2 release
Method: Type I fibrillar collagen from Chronolog was diluted in isotonic glucose to a concentration of 50 μg/mL. 50 μL of collagen solution was added to each well of a high bind 96-well plate. The plate was incubated overnight at 4° C., and then rinsed 3× with 1×PBS. For microplate assays, peptidoglycan was diluted in 1×PBS at concentrations between 0.0001 μM to 100 μM and 50 μL solution was added to the collagen coated wells. DS, peptide, or 1×PBS were also added to collagen coated wells as controls. Treatments were incubated at 37° C. with shaking at 200 rpm for 15 min. Wells were then rinsed of unbound treatment by removing the treatment solution, adding PBS, and shaking the wells for 24 hours. During the 24 hours, PBS solution was changed 3 times.
Human whole blood was collected from healthy volunteers by venipuncture. The first 5 mL of blood was discarded and approximately 20 mL was then collected into citrated glass vacutainers (BD Bioscience). Blood was centrifuged in the glass tube for 20 min at 200 g at 25° C. The top layer of the centrifuged blood, the platelet rich plasma (PRP), was used for platelet experiments.
PRP (50 μL/well) was added to the microplate for 1 hour at room temperature without shaking. After 1 hour of incubation, 45 μL of PRP was removed from each well and added to a microcentrifuge tube containing […] ETP (107 mM EDTA, 12 mM theophylline, and 2.8 mM prostaglandin E1) to inhibit further platelet activation. These tubes were spun at 4° C. for 30 min at 2000 g to pellet the platelets. The supernatant (platelet serum) was collected for ELISA studies to test for the presence of platelet activation markers PF-4 and NAP2. Sandwich ELISAs were utilized in order to detect each protein. The components for both sandwich ELISAs were purchased from R&D Systems and the provided protocols were followed. Platelet serum was diluted 10,000 times in 1% BSA in 1×PBS for values to fall within a linear range.
Platelet activation was measured through release of platelet factor 4 (PF4) and β-thromboglobulin (NAP2). […] Since the high SILY/DS ratio is expected to provide higher binding affinity to the collagen surface due to multiple interactions, peptidoglycans with the higher SILY/DS ratios were prepared.
The number of peptides per DS molecule was further increased to 18 to create the peptidoglycan DS-SILY18, and the concentration of molecule needed to inhibit platelet activation was tested. […] Within solubility limits, the number of peptides can be increased to achieve maximal platelet inhibition as well as to reduce diffusion over time, where a higher level of peptidoglycans on the denuded vessel wall is sustained.

Kd (Fibrillar collagen [4]): 0.024 µM
Substance: DS-SILY18: dermatan sulfate with 18 peptides of the sequence RRANAALKAGELYKSILYGC linked to the glycan (RRANAALKAGELYKSILYGC-NH2; also: 18 copies linked to dermatan sulfate)
equivalent concentration remaining bound on collagen surface (Fibrillar collagen [1]): approximately 10 nM | endothelial cell proliferation (percent change in cell number) [2]: significant increase in cell proliferation | blood cell binding to collagen under flow [3]: inhibition; also recorded: much less blood cell binding to collagen | concentration at which maximal inhibition of platelet activation was achieved [5]: 10 µM
